Data on 8 compounds can be found in patent publication US9334289B2, “Cephem compound having catechol or pseudo-catechol structure” (SHIONOGI & CO., LTD., priority 2011, dated 2016).

Molecules are shown by their SMILES. Like-named read-outs stand apart in the source and are kept apart here.

Common to all, as to assay type: cell-based
The subject of one experiment is P. aeruginosa SR24. In words: MIC, CLSI broth microdilution, Test Example 1. As to conditions: Pseudomonas aeruginosa. On the technique in general: Broth dilution looks for growth in wells or tubes with falling amounts of substance.
The test system of experiment [1] is E. coli ATCCBAA-200. In words: MIC, CLSI broth microdilution, Test Example 1. The note with it: Escherichia coli, ATCCBAA200; SHV-4 ESBL producing strain; cation-adjusted Mueller Hinton broth containing human apo-transferrin; 5×10^5 cfu/mL; read-out: Minimum Inhibitory Concentration (MIC) E. coli ATCC BAA-200. The method, then: (§1) Measurement of Minimum Inhibitory Concentration (MIC: μg/mL) was conducted according to CLSI (Clinical and Laboratory Standards Institute) method, and the amount of bacteria for inoculation was 5×10^5 cfu/mL, and cation-adjusted Mueller Hinton broth containing human apo-transferrin was used as a test medium, and the experiment was conducted using broth microdilution method. The bacteria used are listed below.

In another experiment the test system is A. baumannii SR27323. In words: MIC, CLSI broth microdilution, Test Example 1. As to conditions: Acinetobacter baumannii. On the procedure: as §1
The subject of another experiment is P. aeruginosa SR24837. Kind of experiment: MIC, CLSI broth microdilution, Test Example 1. As to conditions: Pseudomonas aeruginosa. The method, then: as §1
The subject of experiment [2] is K. pneumoniae ATCCBAA-1705. In words: MIC, CLSI broth microdilution, Test Example 1. As to conditions: Klebsiella pneumoniae. On the procedure: as §1
The next experiment concerns P. aeruginosa SR27060. Kind of experiment: MIC, CLSI broth microdilution, Test Example 1. As to conditions: Pseudomonas aeruginosa. On the procedure: as §1
Another experiment concerns E. coli ATCCBAA-199. Kind of experiment: MIC, CLSI broth microdilution, Test Example 1. The note with it: Escherichia coli, ATCCBAA199; SHV-3 ESBL producing strain; cation-adjusted Mueller Hinton broth containing human apo-transferrin; 5×10^5 cfu/mL; read-out: Minimum Inhibitory Concentration (MIC) E. coli ATCC BAA-199. The method, then:
as §1

The subject of a further experiment is K. pneumoniae ATCC700603. In words: MIC, CLSI broth microdilution, Test Example 2. As to conditions: Klebsiella pneumoniae, ATCC700603; SHV18 ESBL producing strain; cation-adjusted Iso-Sensitest broth containing human Apo-transferrin; 5×10^5 cfu/mL; read-out: Minimum Inhibitory Concentration (MIC) K. pneumoniae ATCC 700603. A digest of the protocol:
(§2)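 Test medium was Iso-Sensitest broth, cation-adjusted and containing human Apo-transferrin. Inoculum 5×10^5 cfu/mL; broth microdilution according to CLSI, with MIC expressed as μg/mL.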

In a further experiment the test system is E. cloacae NCTC13464. In words: MIC, CLSI broth microdilution, Test Example 2. As to conditions: Enterobacter cloacae, NCTC13464; CTX-M group 9 ESBL producing strain; cation-adjusted Iso-Sensitest broth containing human Apo-transferrin; 5×10^5 cfu/mL; read-out: Minimum Inhibitory Concentration (MIC) E. cloacae NCTC 13464. A digest of the protocol:
as §2

Experiment [3] deals with E. coli ATCCBAA-200. In words: MIC, CLSI broth microdilution, Test Example 2. The note with it: Escherichia coli, ATCCBAA200; SHV-4 ESBL producing strain; cation-adjusted Iso-Sensitest broth containing human Apo-transferrin; 5×10^5 cfu/mL; read-out: Minimum Inhibitory Concentration (MIC) E. coli ATCC BAA-200. In short, it runs like this: as §2
For the next experiment, the system named is E. coli ATCCBAA-196. Kind of experiment: MIC, CLSI broth microdilution, Test Example 2. The note with it: Escherichia coli, ATCCBAA196; TEM-10 ESBL producing strain; cation-adjusted Iso-Sensitest broth containing human Apo-transferrin; 5×10^5 cfu/mL; read-out: Minimum Inhibitory Concentration (MIC) E. coli ATCC BAA-196. In short, it runs like this:
as §2

The next experiment deals with A. baumannii SR01331. In words: MIC, CLSI broth microdilution, Test Example 2. The note with it: Acinetobacter baumannii, SR01331; PER-1, OXA-23.51 ESBL- & OXA-type carbapenemase producing strain; cation-adjusted Iso-Sensitest broth containing human Apo-transferrin; 5×10^5 cfu/mL; read-out: Minimum Inhibitory Concentration (MIC) A. baumannii SR01331. A digest of the protocol: as §2

The next experiment relates to P. aeruginosa SR01332. In words: MIC, CLSI broth microdilution, Test Example 2. The note with it: Pseudomonas aeruginosa, SR01332; VIM-11 MBL producing strain (carbapenem resistance strain); cation-adjusted Iso-Sensitest broth containing human Apo-transferrin; 5×10^5 cfu/mL; read-out: Minimum Inhibitory Concentration (MIC) P. aeruginosa SR01332. A digest of the protocol: as §2

In the next experiment the test system is E. coli SR01337. Kind of experiment: MIC, CLSI broth microdilution, Test Example 2. As to conditions: Escherichia coli, SR01337; TEM-1 ESBL producing strain; cation-adjusted Iso-Sensitest broth containing human Apo-transferrin; 5×10^5 cfu/mL; read-out: Minimum Inhibitory Concentration (MIC) E. coli SR01337. A digest of the protocol: as §2
The next experiment concerns P. aeruginosa SR01335. Kind of experiment: MIC, CLSI broth microdilution, Test Example 2. The note with it: Pseudomonas aeruginosa, SR01335; VIM-1 like MBL producing strain (carbapenem resistance strain); cation-adjusted Iso-Sensitest broth containing human Apo-transferrin; 5×10^5 cfu/mL; read-out: Minimum Inhibitory Concentration (MIC) P. aeruginosa SR01335. A digest of the protocol:
as §2

Setting [4] is: SR24, Ceftazidime resistance strain, cation-adjusted Mueller Hinton broth containing human apo-transferrin, 5×10^5 cfu/mL, read-out: Minimum Inhibitory Concentration (MIC) P. aeruginosa SR24.
Where [5] appears, read: SR27323, OXA-23, OXA-58 carbapenemase producing strain, cation-adjusted Mueller Hinton broth containing human apo-transferrin, 5×10^5 cfu/mL, read-out: Minimum Inhibitory Concentration (MIC) A. baumannii SR27323.
Setting [6] is: SR24837, PER-1 ESBL producing strain, cation-adjusted Mueller Hinton broth containing human apo-transferrin, 5×10^5 cfu/mL, read-out: Minimum Inhibitory Concentration (MIC) P. aeruginosa SR24837.
Where [7] appears, read: ATCCBAA1705, KPC-2 carbapenemase producing strain, cation-adjusted Mueller Hinton broth containing human apo-transferrin, 5×10^5 cfu/mL, read-out: Minimum Inhibitory Concentration (MIC) K. pneumoniae ATCCBAA-1705.
Where [8] appears, read: SR27060, IMP-1 MBL producing strain (carbapenem resistance strain), cation-adjusted Mueller Hinton broth containing human apo-transferrin, 5×10^5 cfu/mL, read-out: Minimum Inhibitory Concentration (MIC) P. aeruginosa SR27060.

As for `Cc1c(O)c(O)cc2cc[n+](CC3=C(c4nnn[n-]4)N4C(=O)[C@@H](NC(=O)/C(=N\OC(C)(C)C(=O)[O-])c5csc(N)n5)[C@H]4SC3)cc12.[Na+]` [Compound I-22], the MIC in the experiment with P. aeruginosa SR24 (setting [4]) is no more than 0.031 µg/mL; with E. coli ATCCBAA-200 [1], 0.125 µg/mL; with A. baumannii SR27323 (setting [5]), 0.125 µg/mL; with P. aeruginosa SR24837 (setting [6]) it was 0.25 µg/mL; in experiment [2] (setting [7]), no more than 0.031 µg/mL; in the experiment on P. aeruginosa SR27060 (setting [8]), 0.25 µg/mL. In the experiment with E. coli ATCCBAA-199, the MIC stood at 0.063 µg/mL.
With `CC(C)(O/N=C(\C(=O)N[C@@H]1C(=O)N2C(c3nnn[n-]3)=C(Cn3cc4ccc(CNC(=O)c5ccc(O)c(O)c5Cl)c[n+]4c3)CS[C@H]12)c1csc(N)n1)C(=O)[O-].[Na+]` [Compound I-58], the MIC with P. aeruginosa SR24 (setting [4]) was 0.125 µg/mL; with E. coli ATCCBAA-200 [1], 0.5 µg/mL; in the experiment on A. baumannii SR27323 (setting [5]), 1 µg/mL; in the experiment on P. aeruginosa SR24837 (setting [6]) it was 0.5 µg/mL; in experiment [2] (setting [7]), no more than 0.031 µg/mL; in the experiment with P. aeruginosa SR27060 (setting [8]) it was 0.5 µg/mL. In addition, in the experiment on E. coli ATCCBAA-199, the MIC was determined as 0.25 µg/mL.
`CC(C)(O/N=C(\C(=O)N[C@@H]1C(=O)N2C(c3nnn[n-]3)=C(C[n+]3ccc(CNC(=O)c4ccc(O)c(O)c4Cl)cc3)CS[C@H]12)c1csc(N)n1)C(=O)[O-].[Na+]` [Compound I-71]: the MIC with P. aeruginosa SR24 (SR24, read-out: Minimum Inhibitory Concentration (MIC) P. aeruginosa SR24) is 0.063 µg/mL; in the experiment with E. coli ATCCBAA-200 [1], 0.5 µg/mL; with A. baumannii SR27323 (SR27323, read-out: Minimum Inhibitory Concentration (MIC) A. baumannii SR27323), 1 µg/mL; in the experiment on P. aeruginosa SR24837 (SR24837, read-out: Minimum Inhibitory Concentration (MIC) P. aeruginosa SR24837) it was 1 µg/mL; in [2] (ATCCBAA1705, read-out: Minimum Inhibitory Concentration (MIC) K. pneumoniae ATCCBAA-1705), no more than 0.031 µg/mL; in the experiment on P. aeruginosa SR27060 (SR27060, read-out: Minimum Inhibitory Concentration (MIC) P. aeruginosa SR27060) it was 0.25 µg/mL. The MIC in the experiment with E. coli ATCCBAA-199 was determined as 0.25 µg/mL.
Turning to `CC(C)(O/N=C(\C(=O)N[C@@H]1C(=O)N2C(c3nnn[n-]3)=C(C[n+]3cccc(NC(=O)c4ccc(O)c(O)c4Cl)c3)CS[C@H]12)c1csc(N)n1)C(=O)[O-].[Na+]` [Compound I-73], the MIC with P. aeruginosa SR24 (setting [4]) is 0.125 µg/mL; with E. coli ATCCBAA-200 [1] it was 0.125 µg/mL; with A. baumannii SR27323 (setting [5]) it was 0.25 µg/mL; in the experiment with P. aeruginosa SR24837 (setting [6]) it was 0.25 µg/mL; in [2] (setting [7]) it was no more than 0.031 µg/mL; with P. aeruginosa SR27060 (setting [8]), 0.25 µg/mL. Also, the MIC in the experiment on E. coli ATCCBAA-199 was 0.063 µg/mL.
With `CC(C)(O/N=C(\C(=O)N[C@@H]1C(=O)N2C(c3nnn[n-]3)=C(Cn3cc[n+](CCNC(=O)c4ccc(O)c(O)c4Cl)c3)CS[C@H]12)c1csc(N)n1)C(=O)[O-].[Na+]` [Compound I-74], the MIC with P. aeruginosa SR24 (setting [4]) was 0.125 µg/mL; in the experiment on E. coli ATCCBAA-200 [1], 0.125 µg/mL; with A. baumannii SR27323 (setting [5]), 0.5 µg/mL; in the experiment on P. aeruginosa SR24837 (setting [6]) it was 0.5 µg/mL; in experiment [2] (setting [7]) it was no more than 0.031 µg/mL; with P. aeruginosa SR27060 (setting [8]) it was 0.25 µg/mL. The MIC in the experiment on E. coli ATCCBAA-199 came to 0.063 µg/mL.
Take `C[N+]1(CC2=C(c3nnn[n-]3)N3C(=O)[C@@H](NC(=O)/C(=N\O[C@@H](CC(=O)[O-])C(=O)[O-])c4csc(N)n4)[C@H]3SC2)CCN(C(=O)c2ccc(O)c(O)c2Cl)CC1.[Na+].[Na+]` [Compound I-61]: the MIC came out at 0.125 µg/mL with K. pneumoniae ATCC700603; 0.125 µg/mL in the experiment on E. cloacae NCTC13464; 0.25 µg/mL in the experiment on E. coli ATCCBAA-200 [3]; 0.063 µg/mL in the experiment with E. coli ATCCBAA-196; 1 µg/mL with A. baumannii SR01331; 4 µg/mL in the experiment on P. aeruginosa SR01332. The MIC with E. coli SR01337 turned out to be 0.063 µg/mL; in the experiment with P. aeruginosa SR01335, 4 µg/mL.
Consider `Nc1nc(/C(=N/O[C@@H](CC(=O)[O-])C(=O)[O-])C(=O)N[C@@H]2C(=O)N3C(c4nnn[n-]4)=C(C[N+]45CCC[C@H]4CN(C(=O)c4ccc(O)c(O)c4Cl)CC5)CS[C@H]23)cs1.[Na+].[Na+]` (some centres unmarked) [Compound I-57], for which the MIC turned out to be 0.125 µg/mL in the experiment with K. pneumoniae ATCC700603; 0.25 µg/mL in the experiment on E. cloacae NCTC13464; 0.25 µg/mL in the experiment with E. coli ATCCBAA-200 [3]; 0.063 µg/mL with E. coli ATCCBAA-196; 0.5 µg/mL in the experiment with A. baumannii SR01331; 8 µg/mL in the experiment on P. aeruginosa SR01332. For the same compound, the MIC was determined as 0.063 µg/mL with E. coli SR01337 and 1 µg/mL in the experiment with P. aeruginosa SR01335.
For the compound `Nc1nc(/C(=N/O[C@@H](CC(=O)[O-])C(=O)[O-])C(=O)N[C@@H]2C(=O)N3C(c4nnn[n-]4)=C(C[n+]4ccc5cc(O)c(O)cc5c4)CS[C@H]23)cs1.[Na+].[Na+]` [Compound I-65], the MIC was no more than 0.031 µg/mL in the experiment with K. pneumoniae ATCC700603; no more than 0.031 µg/mL in the experiment on E. cloacae NCTC13464; no more than 0.031 µg/mL in the experiment on E. coli ATCCBAA-200 [3]; no more than 0.031 µg/mL in the experiment on E. coli ATCCBAA-196; 0.125 µg/mL in the experiment on A. baumannii SR01331; 0.25 µg/mL in the experiment on P. aeruginosa SR01332. Further, the MIC in the experiment on E. coli SR01337 was no more than 0.031 µg/mL; in the experiment with P. aeruginosa SR01335, 0.5 µg/mL.
